# Measured values as given in patent US20140357706A1, “Stearate Compounds” (THE UAB RESEARCH FOUNDATION, priority 2011, published 2014).
# Key:
# [1] = tested on: differentiated 3T3L1 adipocytes; assay: Necrosis and apoptosis of differentiated 3T3L1 adipocytes (trypan blue, LDH, flow cytometry); type: cell-based, mouse; conditions: 50 μM
# Protocol: 3T3L1 mouse fibroblast cells (ATCC, CL-173™) were maintained according to the manufacture's protocol, in Dulbecco's modified eagle's medium (DMEM) containing 10% Fetal Bovine Serum and antibiotics (M1 medium). Adipocyte differentiation was performed according to standard procedures (42). Briefly, the 3T3L1 fibroblasts were seeded at 30% confluence and allowed to grow to near 100% confluence. On the day after reaching maximum confluence, conversion was induced by replacing the M1 medium with M1 medium containing insulin (5 μg/ml), dexamethasone (0.25 μM), and 3-isobutyl-1-methyl-xanthine (0.5 mM). After 2 days, the cells were changed to M1 medium with insulin (5 μg/ml) for an additional 2 days. Thereafter, the cells were maintained in M1 medium without additives for 2 days.
# 50 μM of stearate, oleate or linoleate was used to treat 3T3L1 cells as this concentration is centered within the normal range for non-esterified stearate in the plasma of humans. Stearate, oleate, or linoleate was loaded onto fatty acid free BSA according to the method reported by Spector and Hoak (Spector and Hoak, 1969). Briefly, stearate (0.5 g) was dissolved in chloroform (100 mL) and mixed well with 10 g diatomaceous earth in a 1 liter flask. The mixture was stirred and dried under nitrogen until powder. Fatty acid free BSA (1 g) was dissolved in 100 mL with DMEM without phenol red and mixed with 3 g of the stearate/diatomaceous earth mixture and stirred for 30 minutes. The stearate/BSA solution was filtered through a 0.45 μm filter, and adjusted to pH 7.4. The concentration of stearate in the solution was detected by use of a NEFA C kit. Oleic and linoleate were loaded in the same way. […] Before the treatment with fatty acid, 3T3L1 preadipocytes were grown to 100%, and were starved in 2% FBS medium for 24 hours.
# After treatment, 3T3L1 cells were harvested, washed with cold PBS, and then resuspended in 100 μl annexin-binding buffer (50 mM HEPES, 700 mM NaCl, 12.5 mM CaCl2, pH 7.4). Cell density was determined, and the cells were diluted to 10^6 cells. Then 5μL of Alex Fluo 488 annexin V and 1 μL propidium iodide (PI) were added. Cells were gently oscillated and incubated for 15 min at room temperature. After adding 400 μL of binding buffer to each tube, cells were kept on ice and analyzed by flow cytometry within 1 hour. Cells that stained positive for Alex Fluo 488 annexin V and negative for PI were considered to be apoptotic. Cells that stained positive for both Alex Fluo 488 annexin V and PI were considered either in the end stage of apoptosis, or necrosis. Cells that stained negative for both Alex Fluo 488 annexin V and PI were considered alive and not undergoing measurable apoptosis. A BD LSR II flow cytometer from Becton Dickinson was used in all flow experiments and the data were analyzed with BD FACSDiva™ software V.6.1.3.
# Lactate dehydrogenase (LDH) release was measured using a cytotoxicity detection kit, according to the manufacture's protocol. After 3T3L1 cells were treated, 1 ml of cell culture medium was removed and centrifuged. The supernatant was retained for assaying. For determinations, 100 μl of LDH assay reagent was added to 100 μl of supernatant and incubated for 30 min at room temperature in the dark. Absorbance was measured at 490 nm. Background release from culture medium alone was subtracted before reporting. Maximum release was measured after adding 2% Triton X-100 to untreated cells.
# After treatment, 3T3L1 cells were harvested and stained with 0.4% trypan blue solution. Cells in the four corners of the grid were counted under a conventional bright field binocular microscope.
# [2] = tested on: p21^CIP1/WAF1 and p27^KIP1 mRNA; assay: Quantitative real-time RT-PCR for p21CIP1/WAF1 and p27KIP1 in Hs578T cells; type: cell-based, human; conditions: normalized to 18S rRNA; vs control, P<0.05
# Protocol: Total RNA was extracted and purified with TRIZOL Reagent (GIBCO Invitrogen, Carlsbad, Calif.). The first-strand complementary DNA (cDNA) synthesis was achieved using a commercially available kit (New England BioLabs, Beverly, Mass.) according to the protocol from the manufacturer. Briefly, 1 μg of total RNA was reverse-transcribed using M-MuLV reverse transcriptase (25 U) and dT23VN primer (5 μM) in a final volume of 25 μl.
# Quantitative real-time reverse-transcription polymerase chain reaction (RT-PCR) cDNA samples were diluted to appropriate concentrations and used for a real-time RT-PCR assay in a volume of 25 μl, containing 2 μl DNA template, 12.5 μl SYBR® Green PCR Master Mix (Applied Biosystems, Foster City, Calif.) and 0.4 μM each specific primer. The gene expression of p21^CIP1/WAF1 and p27^KIP1 were determined by real-time quantitative RT-PCR and the house-keeping gene 18S ribosomal RNA (rRNA) was used as an internal control to normalize the variable RNA loading in each sample. […] The fluorescence intensity corresponding to the CT was used to quantitate the target cDNA in the mixture of samples with […] dilutions, employing the standard curve for each target gene. Sequence Detector Software (Applied Biosystems) was used to extract the data of the quantitative real-time RT-PCR. […]
# MCF10A = conditions: ref (27); cited from earlier work
compound,measurement,setting,value
"CCCCCCCCCCCCCCCCCC(=O)O [stearate, Stearic acid]",Cytotoxicity (lactate dehydrogenase in medium),[1],no significant changes
same,Percentage of apoptotic cells (flow cytometry),[1],no significant changes
same,Percentage of dead cells (flow cytometry),[1],no significant changes
same,Percentage of dead cells (trypan blue),[1],no significant changes
same,p21^CIP1/WAF1 mRNA expression,[2],increased
same,Effect on MCF10A non-tumorigenic cell line,MCF10A,not affected
